Experimental findings from patent US20240116918A1, “SUBSTITUTED TRICYCLIC COMPOUND AS PRMT5 INHIBITOR AND USE THEREOF” (NANJING SANHOME PHARMACEUTICAL CO., LTD., priority 2019, published 2024) are described below.

The subject of the experiment is Z-138 cells. Description: In vitro cell activity, Z-138 cells, CellTiter-Glo. It is filed as cell-based. To be noted: Z-138, 168 h, human mantle cell lymphoma cells, 7 days. As to the method: Test compounds: the compounds of the present invention prepared in the above example. Each compound was formulated into a 10 mM stock solution with DMSO, and finally diluted into 8 concentrations for detection, with the final concentrations being 33333.00 nM, 6666.60 nM, 1333.32 nM, 266.66 nM, 53.33 nM, 10.67 nM, 2.13 nM, and 0.43 nM for experiments in Z-138 cells.
2.1.1 Z-138 cell thawing: The cryovial for Z-138 cells was taken out from a liquid nitrogen tank and placed in a 37° C. water bath, and shaken gently for thawing as soon as possible. After thawing, the cryovial was taken out, and sterilized with an alcohol cotton ball, after which the cap was unscrewed. The cell fluid was drawn and injected into a centrifuge tube. 1 mL of complete medium containing 10% horse serum was added, and mixed uniformly. The tube was placed in a centrifuge, and centrifuged at 1000 rpm for 5 min. Afterwards, the supernatant was discarded, and complete medium was added. The mixture was pipetted repeatedly until the cells were completely dispersed and resuspended. The mixture was inoculated in a petri dish at an appropriate concentration, and cultured in a CO2 incubator at 37° C., 5% CO2, and 95% humidified air.
2.2.1 Z-138 cell culture and passage: The cells grew to about 80-90%. The medium (IMDM medium+10% horse serum+1% penicillin-streptomycin) was transferred to a 15 mL centrifuge tube, and centrifuged at 1000 rpm for 5 min. The supernatant was removed. The cells were resuspended in complete medium, and inoculated in a petri dish at the desired density. The dish was placed in an incubator at 37° C., 5% CO2, and 95% humid air. The culture medium was replenished every 2-3 days or the passage was carried out, depending on the cell growth.
After passage, Z-138 cells were resuspended in complete medium at a density of 1000 cells/well and inoculated in a 96-well culture plate. The 36 wells at the outer circumference of the 96-well plate were filled with 200 μL of PBS to prevent the culture conditions of the inner plate wells from being too different from each other due to the faster evaporation of medium at the edge. The leftmost column of the 60 inner wells were blank wells, which were not added with cells, but filled with equal volume of PBS. The remaining 54 wells were subjected to cell plating with a multichannel pipette, to each well was added 100 μL of culture medium containing corresponding cells. After cell plating was finished, the 96-well plate was tapped to make the cells evenly suspended, and placed in a 5% CO2 incubator and cultured at 37° C. for 24 h.
For Z-138 cells, in addition to the original medium (100 μL), 50 μL (3×) of drug was added, and duplicate wells were set for each concentration group. The plate was placed in a CO2 incubator and further cultured for 7 days. […]
A general note: In ATP-based viability assays light output follows the ATP content of the culture.
The IC50 is the concentration at which inhibition is half-maximal. In the case of `CC(=O)N1CCC(Nc2cc(C(=O)NC[C@H](O)CN3CCc4ccccc4C3)ncn2)CC1` [Compound A, (S)-6-((1-Acetylpiperidin-4-yl)amino)-N-(3-(3,4-dihydroisoquinolin-2(1H)-yl)-2-hydroxypropyl)pyrimidine-4-carboxamide], the midpoint of inhibition, the IC50, lay at 19.5 nM.

In the case of `CC(=O)N1CCC(Nc2cc3c(cn2)C2(CC2)CN(C[C@H](O)CN2CCc4ccccc4C2)C3=O)CC1` [Example 1, (R)-7′-((1-acetylpiperidin-4-yl)amino)-2′-(3-(3,4-dihydroisoquinolin-2(1H)-yl)-2-hydroxypropyl)-2′,3′-dihydro-1′H-spiro[cyclopropane-1,4′-[2,6]naphthyridin]-1′-one], half-maximal inhibition (IC50) was put at 3.07 nM.

`CC(=O)N1CCC(Nc2ccc3c(c2)C(=O)N(C[C@H](O)CN2CCc4ccccc4C2)CC32CC2)CC1` [Compound B, (R)-7′-((1-Acetylpiperidin-4-yl)amino)-2′-(3-(3,4-dihydroisoquinolin-2(1H)-yl)-2-hydroxypropyl)-2′,3′-dihydro-1′H-spiro[cyclopropane-1,4′-isoquinolin]-1′-one, reference compound] yielded an IC50 of 4.33 nM.

In turn, `CC(=O)N1CC2(CC(Nc3cc4c(cn3)C3(CC3)CN(C[C@H](O)CN3CCc5ccccc5C3)C4=O)C2)C1` [Example 2, (R)-7′-((2-acetyl-2-azaspiro[3.3]hept-6-yl)amino)-2′-(3-(3,4-dihydroisoquinolin-2(1H)-yl)-2-hydroxypropyl)-2′,3′-dihydro-1′H-spiro[cyclopropane-1,4′-[2,6]naphthyridin]-1-one] displayed a half-maximal inhibitory concentration (IC50) of 2.2 nM.
